Assay results reported in patent US7691416B2, “Methods of treating vascular disease” (priority 2002, dated 2010).

How the values were obtained:
cGMP = cGMP immunoassay (EIA) of SMC lysates; format: cell-based, mouse; conditions: CO 250 ppm for 8 h or 16 h
Source text: (§1) Animals. Male (250-350 g) Brown Norway rats (RT1^n) were used as aortic graft donors and male (250-350 g) Lewis rats (RT11) as recipients. Dawley (400-450 g) rats were used in the balloon injury model. Adult male C57BL/6, C57/S129, p21^−/− and p53^−/− null mice were purchased from Jackson Laboratory (Bar Harbor, Me.). mkk3^(−/−) null mice were generated as described Lu et al. (EMBO. 18:1845-1857 (1999)). The inos^−/− and enos^−/− mice were bred at the University of Pittsburgh. Aortic transplant model. Aortic transplantation was performed as described in Shimizu et al. (Nat. Med. 7:738-741 (2001)). Briefly, 3 to 4 cm of descending aorta was harvested from the donor and implanted between the renal arteries and the aortic bifurcation of the recipient. Both edges of the native abdominal aorta were ligated. Balloon injury model. Balloon angioplasty was carried out as described in Murakami et al. (Atherosclerosis 157:361-368 (2001)). […] [^3H]thymidine incorporation was measured by scintillation spectroscopy and presented as mean counts/min/well. […] Areas from eight to ten captured images were calculated using digital imaging software as number of pixels corresponding to those areas. Twenty-four to forty-eight sections from each group were statistically analyzed with SPSS software version 10. […]

iNOS and eNOS = test: Western blot of NOS isoforms in SMC; format: cell-based, mouse; conditions: CO 250 or 10,000 ppm, varying amounts of time
Source text: as §1

[C-]#[O+] [CO, carbon monoxide]
Intracellular cGMP levels (cGMP): increased
Induction of NOS isoforms (iNOS and eNOS): no induction
